# Reference: article PMC10177692, “Novel topoisomerase II/EGFR dual inhibitors: design, synthesis and docking studies of naphtho[2′,3′:4,5]thiazolo[3,2-a]pyrimidine hybrids as potential anticancer agents with apoptosis inducing activity” (Journal of Enzyme Inhibition and Medicinal Chemistry, 2023)
# Where two headings read alike, the source gives them in different places.
# Legend:
# [1] = system: A549; assay: MTT anti-proliferative assay; format: cell-based, human; conditions: for fold the activity of erlotinib: A549, ratio of IC50 values; for IC50: Homo sapiens, A549, MTT, 24 h, mean ± SE of three experiments, read-out: IC50 (µM) ± S.E. A549
# Protocol: (§1) The culture media were supplemented with 10% heat inactivated foetal bovine serum (FBS, HyClone, Thermo Scientific) and antibiotics (100 U/ml penicillin and 100 µg/ml streptomycin, HyClone, Thermo Scientific). The cells were incubated in a humidified atmosphere containing 5% CO2 (Heracell VIOS CO2 incubator, Thermo Scientific) in air at 37 °C.
# (§2) MTT reagent, at volume equal to 10% of the culture medium volume, was added to the cultured cells and to the blank wells. The culture plates were re-incubated for 2–4 h depending on cell type and density. After the incubation period, culture plates were restored from the incubator and the obtained formazan crystals were dissolved in acidified isopropanol with continuous shaking using plate shaker (MaxQ 2000, Thermo Fisher Scientific Inc., MI, USA) at room temperature. Absorbance was measured spectrophotometrically at wavelength 570 nm using a plate reader (Stat FaxR 4200, Awareness Technology, Inc., FL, USA). […] Three independent experiments were performed for each compound and Mean ± SE were calculated.
# [2] = system: MCF-7; assay: MTT anti-proliferative assay; format: cell-based, human; conditions: for IC50: Homo sapiens, MCF7; for fold the activity of erlotinib: MCF-7, ratio of IC50 values
# Protocol: as §1, §2
# [3] = system: HCT-116; assay: MTT anti-proliferative assay; format: cell-based, human; conditions: Homo sapiens, HCT-116; MTT, 24 h, mean ± SE of three experiments; read-out: IC50 (µM) ± S.E. HCT-116
# Protocol: as §1, §2
# [4] = system: caspase-7; assay: Caspase-7 ELISA in MCF-7 cells; format: cell-based, human; conditions: for Caspase 7 FLD: MCF-7, at IC50, fold of control; for Caspase 7 Conc.(ng/ml): MCF-7, at IC50, control 0.45 ± 0.03
# Protocol: (§3) The effect of 6a, 6c and 6i hybrids on caspase-7 and −9 levels in MCF-7 cell line was measured using Human Caspase-7 ELISA Kit (BioVision Inc., Milpitas, CA 95035 USA) and Human Caspase-9 ELISA Kit (EIA-4860, DRG, USA), respectively, and according to the manufacturer’s instructions. The results were expressed as Mean ± SE of three independent experiments.
# [5] = system: Bcl-2; assay: Bcl-2 level ELISA in MCF-7 cells; format: cell-based, human; conditions: for Bcl-2 Conc.(ng/ml): MCF-7, at IC50, 24 h, control 6.56 ± 0.22; for Bcl-2 FLD: MCF-7, at IC50, fold of control cells
# Protocol: (§4) MCF-7 cells were cultured in DMEM supplied with 10% FBS and incubated in 5% CO2 in air at 37 °C. […] Cell lysate was diluted using standard diluent buffer over the range of assay. Bax and Bcl-2 content in the lysate was assessed using human Bax ELISA kit (DRG, USA) and Bcl-2 ELISA Kit (Zymed Laboratories, Invitrogen Immuno-detection, Canada), respectively, according to the manufacturer’s instructions for each kit. The results were expressed as Mean ± SE of three independent experiments.
# [6] = system: caspase-9; assay: Caspase-9 ELISA in MCF-7 cells; format: cell-based, human; conditions: for Caspase 9 FLD: MCF-7, at IC50, fold of control; for Caspase 9 Conc.(pg/ml): MCF-7, at IC50, control 4.51 ± 0.29
# Protocol: as §3
# [7] = target: T1, topoisomerase IIα (Homo sapiens, UniProt P11388); assay: Topoisomerase IIα inhibitory activity (ELISA kit); format: cell-based; conditions: MCF-7 cell line; for % inhibition of topoisomerase IIα activity: compounds at their IC50, compared to control
# T1 construct: it decreases the concentration of topoisomerase iIα in MCF-7 cell line to 1.043 ± 0.10 ng/ml; endogenous in cells; host or cells: MCF-7
# T1 sequence (P11388 whole entry): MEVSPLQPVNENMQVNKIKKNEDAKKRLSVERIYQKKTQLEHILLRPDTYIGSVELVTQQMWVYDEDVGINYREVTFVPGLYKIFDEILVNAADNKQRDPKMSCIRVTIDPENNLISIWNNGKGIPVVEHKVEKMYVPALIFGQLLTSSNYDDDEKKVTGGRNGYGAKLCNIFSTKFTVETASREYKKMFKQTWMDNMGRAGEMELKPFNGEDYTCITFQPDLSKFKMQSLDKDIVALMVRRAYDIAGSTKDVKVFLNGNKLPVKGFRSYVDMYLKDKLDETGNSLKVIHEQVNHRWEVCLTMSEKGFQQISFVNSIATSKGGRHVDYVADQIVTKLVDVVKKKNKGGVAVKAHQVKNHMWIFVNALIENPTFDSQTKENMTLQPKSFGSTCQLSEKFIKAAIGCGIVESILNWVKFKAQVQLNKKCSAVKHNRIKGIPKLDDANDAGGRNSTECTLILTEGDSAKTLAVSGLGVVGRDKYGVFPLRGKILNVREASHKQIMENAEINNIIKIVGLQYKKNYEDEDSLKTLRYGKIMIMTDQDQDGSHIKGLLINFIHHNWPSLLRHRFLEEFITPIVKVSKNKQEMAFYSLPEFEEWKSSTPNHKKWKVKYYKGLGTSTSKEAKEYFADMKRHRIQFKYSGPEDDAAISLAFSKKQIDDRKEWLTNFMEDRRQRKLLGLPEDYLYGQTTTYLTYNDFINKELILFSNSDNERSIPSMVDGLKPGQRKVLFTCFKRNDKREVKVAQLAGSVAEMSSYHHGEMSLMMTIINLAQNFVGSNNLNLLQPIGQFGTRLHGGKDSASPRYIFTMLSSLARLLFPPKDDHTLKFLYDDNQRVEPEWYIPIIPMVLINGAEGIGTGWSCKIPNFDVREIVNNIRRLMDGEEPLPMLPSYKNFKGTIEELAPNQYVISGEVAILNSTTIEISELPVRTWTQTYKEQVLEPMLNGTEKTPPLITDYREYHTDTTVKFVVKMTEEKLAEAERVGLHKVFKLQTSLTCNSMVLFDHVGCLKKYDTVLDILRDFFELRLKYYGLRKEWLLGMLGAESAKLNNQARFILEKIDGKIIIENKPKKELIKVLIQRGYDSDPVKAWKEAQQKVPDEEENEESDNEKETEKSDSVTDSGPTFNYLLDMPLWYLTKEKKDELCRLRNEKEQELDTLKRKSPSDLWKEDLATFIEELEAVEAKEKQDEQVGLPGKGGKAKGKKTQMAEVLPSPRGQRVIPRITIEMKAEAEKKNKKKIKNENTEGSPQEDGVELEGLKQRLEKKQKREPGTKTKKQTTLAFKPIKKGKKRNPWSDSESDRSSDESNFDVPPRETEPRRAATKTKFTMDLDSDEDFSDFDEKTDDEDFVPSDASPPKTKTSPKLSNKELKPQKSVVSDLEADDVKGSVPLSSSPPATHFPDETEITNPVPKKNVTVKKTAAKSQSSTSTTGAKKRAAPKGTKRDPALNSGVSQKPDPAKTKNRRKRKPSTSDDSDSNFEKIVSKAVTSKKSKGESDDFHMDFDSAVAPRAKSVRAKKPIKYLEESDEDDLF
# Protocol: Biotin-conjugated antibody was added to each well followed by incubation at 37 °C for 1 h, then the plates were aspirated. Avidin conjugated Horseradish Peroxidase (HRP avidin) solution was added to each well, incubated again at 37 °C for 1 h. TMB substrate was added to the wells and the plate was incubated at 37 °C for 30 min at dark place. The absorbance was read using spectrophotometer at a wavelength of 450 nm.
# [8] = target: T2, topoisomerase II (Homo sapiens, UniProt P11388); assay: DNA topo II inhibition assay (kDNA, agarose gel); format: biochemical; conditions: 10 µM, with topo II
# T2 construct: purchased Topogen, USA
# T2 sequence (P11388 whole entry): as above
# Protocol: Using the procedure outlined in topoisomerase II Drug Screening Kit (Topogen, USA), the effect of 6a, 6c and 6i on topoisomerase II inhibition and the effectiveness of catenated/decatenated kDNA formation were examined. The reaction mixture includes 10 mM MgCl2, 50 mM Tris-HCl, 0.5 mM dithiothreitol, […]/ml bovine serum albumin, 200–300 ng of kDNA and topoisomerase II. […] After the reaction samples were incubated for 30 min at 37 °C, the reaction was stopped by adding […] of a stop buffer containing 10% (w/v) SDS and […] of 0.5 mg/ml proteinase followed by incubating the mixture for 10 min at 37 °C. The reaction mixture was separated by 1% agarose gel and examined after being stained with ethidium bromide.
# [9] = system: p53; assay: p53 level ELISA in MCF-7 cells; format: cell-based, human; conditions: for p53 FLD: MCF-7, at IC50, fold of control cells; for p53 Conc.(pg/ml): MCF-7, at IC50, control 257 ± 19.1
# Protocol: p53 level was determined in MCF-7 cell line using Human p53 ELISA Kit (Sigma Aldrich, St. Louis, MO, USA). The cells were lysed using cell extraction buffer. Cell lysate was diluted with standard diluent buffer, then added to p53 monoclonal antibody pre-coated 96-wells plate. The plate incubated for 2 h at room temperature. Anti-p53 detection antibody was added to the plate and re-incubated at room temperature for 1 h. The plate washed four times using wash buffer followed by addition of anti-rabbit IgG-Horseradish Peroxidase (HRP) working solution. The plate incubated at room temperature for 30 min. Chromogen TMB (tetramethylbenzidine) was added to induce colour reaction. The absorbance of the plate was read at 450 nm using microplate reader (Bio-Rad Laboratories, Hercules, CA, USA). Three independent experiments were performed for each compound and Mean ± SE were calculated.
# [10] = system: Bax; assay: Bax level ELISA in MCF-7 cells; format: cell-based, human; conditions: for Bax Conc.(pg/ml): MCF-7, at IC50, 24 h, control 83.16 ± 6.2; for Bax FLD: MCF-7, at IC50, fold of control cells
# Protocol: as §4
# [11] = target: T3, EGFR (Homo sapiens, UniProt P00533); assay: EGFR kinase assay kit; format: biochemical; conditions: mean ± SE; read-out: EGFR inhibitory activity IC50
# T3 construct: purchased BPS Bioscience, San Diego, CA, USA
# T3 sequence (P00533 25-1210): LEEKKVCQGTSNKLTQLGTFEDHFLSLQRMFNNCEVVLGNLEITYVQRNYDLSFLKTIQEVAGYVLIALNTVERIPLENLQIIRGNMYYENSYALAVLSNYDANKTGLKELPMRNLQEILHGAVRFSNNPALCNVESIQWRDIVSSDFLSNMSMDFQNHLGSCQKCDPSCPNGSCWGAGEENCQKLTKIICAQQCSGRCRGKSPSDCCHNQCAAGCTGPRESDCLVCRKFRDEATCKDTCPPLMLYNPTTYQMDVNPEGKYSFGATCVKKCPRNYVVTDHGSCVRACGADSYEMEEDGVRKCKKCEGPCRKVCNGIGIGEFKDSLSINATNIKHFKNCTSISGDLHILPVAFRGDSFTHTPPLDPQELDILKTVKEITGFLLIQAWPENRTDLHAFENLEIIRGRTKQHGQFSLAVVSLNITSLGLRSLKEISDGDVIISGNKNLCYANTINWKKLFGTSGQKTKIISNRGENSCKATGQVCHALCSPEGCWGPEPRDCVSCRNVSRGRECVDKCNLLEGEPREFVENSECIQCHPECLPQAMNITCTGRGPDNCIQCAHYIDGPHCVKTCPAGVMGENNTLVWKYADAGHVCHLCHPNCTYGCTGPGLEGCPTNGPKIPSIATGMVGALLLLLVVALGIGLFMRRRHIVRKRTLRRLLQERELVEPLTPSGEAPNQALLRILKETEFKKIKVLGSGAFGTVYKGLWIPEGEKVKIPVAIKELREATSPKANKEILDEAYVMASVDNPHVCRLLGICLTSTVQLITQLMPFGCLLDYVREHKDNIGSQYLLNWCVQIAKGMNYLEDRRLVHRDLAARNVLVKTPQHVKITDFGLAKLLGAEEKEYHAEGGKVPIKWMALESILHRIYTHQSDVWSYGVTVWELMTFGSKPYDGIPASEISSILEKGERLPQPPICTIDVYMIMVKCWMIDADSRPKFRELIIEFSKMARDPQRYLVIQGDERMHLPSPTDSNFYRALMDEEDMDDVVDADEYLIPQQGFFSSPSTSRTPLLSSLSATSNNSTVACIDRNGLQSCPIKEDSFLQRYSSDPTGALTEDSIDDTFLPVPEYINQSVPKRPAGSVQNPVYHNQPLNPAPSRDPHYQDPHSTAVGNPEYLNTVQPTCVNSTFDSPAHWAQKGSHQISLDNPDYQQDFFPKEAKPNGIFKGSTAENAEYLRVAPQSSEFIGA
# Protocol: The kinase activity of EGFR was assessed for 6a, 6c and 6i hybrids using EGFR kinase assay kit (BPS Bioscience, San Diego, CA, USA) based on the manufacturer’s instructions. Three independent experiments were performed for each compound and Mean ± SE were calculated.
# [12] = MTT, 24 h, mean ± SE of three experiments, read-out: IC50 (µM) ± S.E. MCF-7
# [13] = MCF-7, concentration used for treatment, read-out: IC50 (Table 2)
# [14] = MCF-7, concentration used for treatment, read-out: IC50 (Table 3)
smiles,measurement,setting,value
"N#Cc1c(-c2ccc(F)cc2)nc2sc3c(n2c1=O)C(=O)c1ccccc1C3=O [Compound 6b, 2–(4-Fluorophenyl)-4,6,11-trioxo-6,11-dihydro-4H-naphtho[’',’':4,5]thiazolo-[3,2-a]pyrimidine-3-carbonitrile]",fold the activity of erlotinib,[1],1.23 fold
same,IC50,[1],4.2 ± 0.41 µM
same,IC50,[2]; [12],4.78 ± 0.36 µM
same,fold the activity of erlotinib,[2],1.52 fold
same,IC50,[3],11.5 ± 0.12 µM
"COc1ccc(-c2nc3sc4c(n3c(=O)c2C#N)C(=O)c2ccccc2C4=O)cc1OC [Compound 6c, 2–(3,4-Dimethoxyphenyl)-4,6,11-trioxo-6,11-dihydro-4H-naphtho[’',’':4,5]-thiazolo[3,2-a]pyrimidine-3-carbonitrile]",Caspase 7 FLD,[4],4.20 fold
same,Caspase 7 Conc.(ng/ml),[4],1.89 ± 0.02 ng/mL
same,Bcl-2 Conc.(ng/ml),[5],2.17 ± 0.36 ng/mL
same,Bcl-2 FLD,[5],0.33 fold
same,IC50,[1],3.65 ± 0.25 µM
same,IC50,[2]; [13],4.42 µM
same,IC50,[2]; [14],4.42 µM
same,IC50,[2]; [12],4.42 ± 0.35 µM
same,IC50,[3],3.66 ± 0.39 µM
same,Caspase 9 FLD,[6],3.03 fold
same,Caspase 9 Conc.(pg/ml),[6],13.68 ± 0.42 pg/mL
same,% inhibition of topoisomerase IIα activity,[7],11.30%
same,linear DNA formation from catenated kDNA,[8],the production of linear DNA was not noticed
same,p53 FLD,[9],2.6 fold
same,p53 Conc.(pg/ml),[9],678 ± 42.3 pg/mL
same,Bax Conc.(pg/ml),[10],372.7 ± 9.4 pg/mL
same,Bax FLD,[10],4.48 fold
same,IC50,[11],0.0447 ± 0.00082 µM
"N#Cc1c(-c2ccc(Br)cc2)nc2sc3c(n2c1=O)C(=O)c1ccccc1C3=O [Compound 6d, 2–(4-Bromophenyl)-4,6,11-trioxo-6,11-dihydro-4H-naphtho[’',’':4,5]thiazolo-[3,2-a]pyrimidine-3-carbonitrile]",fold the activity of erlotinib,[1],1.60 fold
same,IC50,[1],3.25 ± 0.31 µM
same,IC50,[2]; [12],5.66 ± 0.29 µM
same,fold the activity of erlotinib,[2],1.28 fold
same,IC50,[3],11.77 ± 0.11 µM
"N#Cc1c(-c2ccc(Cl)cc2)nc2sc3c(n2c1=O)C(=O)c1ccccc1C3=O [Compound 6e, 2–(4-Chlorophenyl)-4,6,11-trioxo-6,11-dihydro-4H-naphtho[’',’':4,5]thiazolo-[3,2-a]pyrimidine-3-carbonitrile]",IC50,[1],5.72 ± 0.37 µM
same,IC50,[2]; [12],5.14 ± 0.32 µM
same,IC50,[3],9.81 ± 0.65 µM
"COc1cc(-c2nc3sc4c(n3c(=O)c2C#N)C(=O)c2ccccc2C4=O)cc(OC)c1OC [Compound 6f, 4,6,11-Trioxo-2–(3,4,5-trimethoxyphenyl)-6,11-dihydro-4H-naphtho[’',’':4,5]-thiazolo[3,2-a]pyrimidine-3-carbonitrile]",IC50,[1],38.3 ± 3.21 µM
same,IC50,[2]; [12],29.1 ± 1.56 µM
same,IC50,[3],26.8 ± 1.78 µM
"N#Cc1c(-c2ccccc2)nc2sc3c(n2c1=O)C(=O)c1ccccc1C3=O [Compound 6g, 4,6,11-Trioxo-2-phenyl-6,11-dihydro-4H-naphtho[’',’':4,5]thiazolo[3,2-a]-pyrimidine-3-carbonitrile]",IC50,[1],42.2 ± 2.19 µM
same,IC50,[2]; [12],13.8 ± 1.12 µM
same,IC50,[3],9 ± 0.66 µM
"CN(C)c1ccc(-c2nc3sc4c(n3c(=O)c2C#N)C(=O)c2ccccc2C4=O)cc1 [Compound 6h, 2–(4-(Dimethylamino)phenyl)-4,6,11-trioxo-6,11-dihydro-4H-naphtho-[’',’':4,5]thiazolo[3,2-a]pyrimidine-3-carbonitrile]",IC50,[1],21.2 ± 1.23 µM
same,IC50,[2]; [12],37.9 ± 2.25 µM
same,IC50,[3],56.2 ± 4.11 µM
"COc1cccc2c1C(=O)c1c(O)c3c(c(O)c1C2=O)C[C@@](O)(C(=O)CO)C[C@@H]3O[C@H]1C[C@H](N)[C@H](O)[C@H](C)O1 [Dox, Doxorubicin, reference compound]",Caspase 7 FLD,[4],23.2 fold
same,Caspase 7 Conc.(ng/ml),[4],10.44 ± 0.92 ng/mL
same,Bcl-2 Conc.(ng/ml),[5],1.66 ± 0.03 ng/mL
same,Bcl-2 FLD,[5],0.25 fold
same,IC50,[1],4.95 ± 0.29 µM
same,IC50,[2]; [13],5.62 µM
same,IC50,[2]; [14],5.62 µM
same,IC50,[2]; [12],5.62 ± 0.31 µM
same,IC50,[3],6.78 ± 0.44 µM
same,Caspase 9 FLD,[6],6.53 fold
same,Caspase 9 Conc.(pg/ml),[6],29.48 ± 0.25 pg/mL
same,% inhibition of topoisomerase IIα activity,[7],65.92%
same,concentration of topoisomerase IIα,"[7]; compounds at their IC50, control 3.663 ± 0.09 ng/ml",1.248 ± 0.09 ng/mL
same,p53 FLD,[9],4 fold
same,p53 Conc.(pg/ml),[9],1051 ± 22.6 pg/mL
same,Bax Conc.(pg/ml),[10],511.2 ± 6.5 pg/mL
same,Bax FLD,[10],6.14 fold
"C#Cc1cccc(Nc2ncnc3cc(OCCOC)c(OCCOC)cc23)c1 [Erlotinib, erlotinib, reference compound]",IC50,[1],5.19 ± 0.36 µM
same,IC50,[2]; [12],7.26 ± 0.2 µM
same,IC50,[3],8.64 ± 0.18 µM
